Measured values from patent US7763596B2, “Selective glucocorticoid receptor agonists” (The University of Manchester, priority 2000, dated 2010).

Assays:
Type in all cases: cell-based
[1] = biological target: T1, progesterone receptor (PRB) (Homo sapiens, UniProt P06401); assay: Progestogen activity assay using progesterone receptor transactivation; details: 100 nM, AH3-luc reporter, COS7
T1 construct: expressed in transfected cells; host or cells: COS 7
T1 sequence (P06401 1-933): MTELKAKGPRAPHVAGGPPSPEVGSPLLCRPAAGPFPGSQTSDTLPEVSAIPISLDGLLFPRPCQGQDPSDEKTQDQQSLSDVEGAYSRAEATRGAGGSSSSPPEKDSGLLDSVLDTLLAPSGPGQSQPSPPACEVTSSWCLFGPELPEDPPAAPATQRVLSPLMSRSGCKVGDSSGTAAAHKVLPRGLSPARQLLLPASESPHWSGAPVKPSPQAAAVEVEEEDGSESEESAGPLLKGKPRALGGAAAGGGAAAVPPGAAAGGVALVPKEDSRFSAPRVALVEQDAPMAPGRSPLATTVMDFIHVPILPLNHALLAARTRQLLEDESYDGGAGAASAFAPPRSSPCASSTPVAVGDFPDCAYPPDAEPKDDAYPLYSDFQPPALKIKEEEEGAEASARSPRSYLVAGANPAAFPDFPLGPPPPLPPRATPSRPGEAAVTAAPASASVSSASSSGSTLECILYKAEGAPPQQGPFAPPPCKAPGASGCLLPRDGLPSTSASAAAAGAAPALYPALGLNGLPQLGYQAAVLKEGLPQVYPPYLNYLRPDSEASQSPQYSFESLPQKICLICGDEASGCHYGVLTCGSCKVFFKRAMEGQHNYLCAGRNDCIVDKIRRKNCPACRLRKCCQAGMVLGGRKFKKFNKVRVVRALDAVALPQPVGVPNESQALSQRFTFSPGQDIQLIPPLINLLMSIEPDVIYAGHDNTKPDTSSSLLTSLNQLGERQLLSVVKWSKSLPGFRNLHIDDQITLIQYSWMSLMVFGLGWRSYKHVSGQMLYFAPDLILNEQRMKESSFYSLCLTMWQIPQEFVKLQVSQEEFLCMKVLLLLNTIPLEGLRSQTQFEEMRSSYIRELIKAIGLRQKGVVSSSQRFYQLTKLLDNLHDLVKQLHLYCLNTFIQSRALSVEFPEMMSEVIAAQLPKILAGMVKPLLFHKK
Description: As the GR LBD has strong homology with the PR LBD there is a chance that any of the tested steroids of FIGS. 1 and 2A that activate one of these receptors may also activate the other. The presence of illegitimate progestogen activity associated with the steroids of FIGS. 1 and 2A was examined using a transactivation assay with the PR instead of the GR.
The PR was artificially expressed in a cell line lacking endogenous PR and a GRE “driving” a luciferase reporter gene was used to measure ligand dependent activation.
COS7 cells were transfected with 1 μg pSEO-PRB and 3 μg AH3-Luc per 10 cm tissue culture dish. The cells were plated out in to 24 well plates after transfection and the steroids of FIGS. 1 and 2A were added immediately to generate a final concentration of 100 nM. After 18 hour incubation the cells were lysed and a luciferase assay was performed.

glucocorticoid receptor [2] = biological target: T2, glucocorticoid receptor (Homo sapiens, UniProt P04150); assay: Type II antagonist activity assay: competition of dexamethasone transactivation; parameters: expressed in transfected cells; host or cells: COS 7 (African green monkey kidney, deficient in endogenous GR); details: 1, 10, 100 nM; 1 nM dexamethasone
T2 sequence (P04150 1-777): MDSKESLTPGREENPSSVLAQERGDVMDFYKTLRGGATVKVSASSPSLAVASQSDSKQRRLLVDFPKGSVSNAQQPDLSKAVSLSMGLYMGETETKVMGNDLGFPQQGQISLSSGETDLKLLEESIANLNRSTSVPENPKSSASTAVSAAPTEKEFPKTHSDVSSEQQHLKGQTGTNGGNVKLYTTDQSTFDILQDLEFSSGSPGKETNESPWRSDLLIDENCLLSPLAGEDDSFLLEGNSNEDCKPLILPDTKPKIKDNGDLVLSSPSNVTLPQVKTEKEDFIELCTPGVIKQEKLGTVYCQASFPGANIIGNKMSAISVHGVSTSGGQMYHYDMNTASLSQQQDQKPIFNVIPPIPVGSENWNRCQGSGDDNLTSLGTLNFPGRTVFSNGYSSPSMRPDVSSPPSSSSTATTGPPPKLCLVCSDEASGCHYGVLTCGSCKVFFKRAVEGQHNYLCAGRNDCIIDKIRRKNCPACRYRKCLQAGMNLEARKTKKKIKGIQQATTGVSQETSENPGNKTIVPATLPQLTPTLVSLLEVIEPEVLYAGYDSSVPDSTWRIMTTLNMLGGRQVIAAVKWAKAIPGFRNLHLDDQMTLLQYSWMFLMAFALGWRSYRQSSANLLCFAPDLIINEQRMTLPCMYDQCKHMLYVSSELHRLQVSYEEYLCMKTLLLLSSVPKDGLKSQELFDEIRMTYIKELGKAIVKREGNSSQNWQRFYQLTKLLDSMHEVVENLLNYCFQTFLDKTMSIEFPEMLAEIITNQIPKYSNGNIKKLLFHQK
Experimental: A type II antagonist should be able to compete agonist activity. As an antagonist has no ability to transactivate, competition can be measured by inhibition of an agonist in a transactivation assay.
As with the standard transactivation assay previously described, the GR was artificially expressed in a cell line lacking endogenous GR and a GRE “driving” a luciferase reporter gene was used to measure ligand dependent activation. COS7 cells were transfected with 1 μg pcDNA3-GR and 3 μg AH3-Luc per 10 cm tissue culture dish. The cells were plated out in to 24 well plates after transfection and the steroids were added immediately. […] Certain steroids from FIG. 2A were added at the same concentration to all sample wells. After 18 hour incubation the cells were lysed and a luciferase assay was performed.

[3] = biological target: T3, GR ligand binding domain / SRC-1 (Homo sapiens, UniProt P04150); assay: SRC-1 association assay by mammalian two-hybrid analysis; details: 100 nM
T3 construct: expressed in transfected cells
T3 sequence (P04150 524-758 limits assumed): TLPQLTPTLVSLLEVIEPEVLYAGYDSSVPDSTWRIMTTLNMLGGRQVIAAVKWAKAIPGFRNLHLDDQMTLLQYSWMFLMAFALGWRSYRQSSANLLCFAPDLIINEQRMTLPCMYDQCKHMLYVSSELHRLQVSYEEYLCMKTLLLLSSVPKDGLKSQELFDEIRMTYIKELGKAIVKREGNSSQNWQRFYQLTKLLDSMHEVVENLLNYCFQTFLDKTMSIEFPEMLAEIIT
Description: SRC-1 is an important co-activator of GR action that associates with the GR in a ligand dependant manner. The ability of SRC-1 to associate with the GR in this manner can be used as a measure of potency of ligand mediated transactivation. To perform this assay plasmids that generated VP16-GR ligand binding domain (LBD) and GAL4-SRC-1 fusion proteins and a GAL4 binding luciferase reporter gene construct were transfected into in a cell line lacking GR and deficient in endogenous SRC-1. The GAL4-SRC-1 fusion protein could bind to specific sites upstream of the luciferase reporter gene construct. If the SRC-1 fusion protein associated with the ligand bound VP16-GRLBD fusion protein then the VP-16 activation domain augmented the luciferase gene expression.

glucocorticoid receptor [4] = biological target: T2, glucocorticoid receptor; assay: Transactivation assay using artificially expressed glucocorticoid receptor in the COS 7 monkey kidney cell line (GRE luciferase); parameters: expressed in transfected cells; host or cells: COS 7 (African green monkey kidney, deficient in endogenous GR); details: 1, 10, 10 and 500 nM; FIG. 5
Experimental: (§1) All transfections were performed using lipofectamine plus (Gibco BRL), according to the manufacturers' instructions, as previously described^1. Briefly, all cells were seeded at 5×10^5 per 10 cm tissue culture plate 18 hours before transfection, the next day the relevant plasmids were mixed with serum free medium and “Plus” reagent (Gibco BRL) and incubated for 15 mins, lipofectamine reagent was added and the mix was incubated for a further 15 mins, this mix was added to the cells on serum free medium in the 10 cm tissue culture plates and left for 3 hours, the cells were then trypsinised and divided into 24 well plates, the cells were left to recover overnight and were treated with steroid for 16 hours before harvest. All experiments were performed from one transfection in triplicate and on separate occasions with similar results.
(§2) The firefly luciferase gene catalyses the production of light from the substrate luciferin. When plasmid constructs containing this gene are transfected into cell lines the activity of the gene can be assessed by the intensity of the luminesence. The luciferase assay yields luminescence through an ATP-dependent oxidation of luciferin the amount of light produced can be measured by a luminometer and is a measure of gene activity (Davis, 1996). Light intensity was measured in a Luminometer (LB 9501, Berthold). The light intensity should be proportional to luciferase concentration in the range of 10^−16M (10 μg/L) to 10^−8M (1 mg/L). To measure the luminescence of the treated cells 150 μl of 1× reporter lysis buffer (RLB: 25 mM Tris phosphate pH7.8, 10 mM MgCl2, 15% Glycerol, 1% Triton, 1 mM EDTA) was added to the 24 well plates to lyse the cells and incubated at room temperature for 30 mins whilst being shaken. Then 100 μl of the room temperature cell extract were mixed with 100 μl of room temperature Luciferase Assay Reagent (LAR: 1 mM ATP, 0.3 mM D-Luciferin, 66% RLB). This reaction was mixed in a luminometer (LB 9501, Berthold) and the light produced was measured for a period of 5 seconds.
In this assay the GR was artificially expressed in a cell line lacking endogenous GR and a glucocorticoid response element (GRE) “driving” a luciferase reporter gene was used to measure ligand dependent activation.
COS7 cells were transfected with 1 μg pcDNA3-GR and 3 μg AH3-Luc per 10 cm tissue culture dish. The cells were plated out in to 24 well plates after transfection and the steroids were added immediately. After 18 hour incubation the cells were lysed and a luciferase assay was performed.

glucocorticoid receptor [5] = biological target: T2, glucocorticoid receptor; assay: Transrepression assay using artificially expressed glucocorticoid receptor and P65 in the COS 7 cell line (NRE luciferase); parameters: expressed in transfected cells; host or cells: COS 7 (African green monkey kidney, deficient in endogenous GR); details: 1, 10 and 100 nM
Experimental: as §1, §2
To perform this assay the GR and p65 were artificially expressed in a cell line lacking GR and deficient in endogenous P65. The ability of P65 to activate an NFkB response element (NRE) “driving” a luciferase reporter gene could then be repressed by GR in a ligand dependent manner and, therefore, used to measure transrepression.
COS7 cells were transfected with 1 μg pcDNA3-GR and 3 μg NRE-Luc and 200 ng p65 per 10 cm tissue culture dish. The cells were plated out in to 24 well plates after transfection and left for 18 hours to recover before the steroids of FIGS. 1 and 2A were added. After another 18 hour incubation the cells were lysed and a luciferase assay was performed.

Compound	PRB reporter gene activation [1]	other results
CC(=O)[C@H]1CC[C@H]2[C@@H]3CCC4=CC(=O)CC[C@]4(C)[C@H]3CC[C@]12C [progesterone, reference compound]	strong induction of the reporter gene	–
CC#C[C@]1(O)CC[C@H]2[C@@H]3CCC4=CC(=O)CCC4=C3[C@@H](c3ccc(N(C)C)cc3)C[C@@]21C [RU486, reference compound]	–	maximal repression of transactivation (glucocorticoid receptor [2]): ~50%
CC1CC2C3CCC4=CC(=O)C=CC4(C)C3(F)C(O)CC2(C)C1(O)C(=O)COC(=O)Nc1ccc(F)cc1 (stereo not shown) [Compound S]	slightly increased reporter gene activation compared to that of dexamethasone	SRC-1 recruitment at the highest concentration tested [3]: significant response
CNC(=O)C1(O)C(C)CC2C3CCC4=CC(=O)C=CC4(C)C3(F)C(O)CC21C (stereo not shown) [Compound M]	slightly increased reporter gene activation compared to that of dexamethasone	–
CC1CC2C3CCC4=CC(=O)C=CC4(C)C3(F)C(O)CC2(C)C1(O)C(=O)NCc1ccccc1 (stereo not shown) [Compound K]	slightly increased reporter gene activation compared to that of dexamethasone	SRC-1 recruitment at the highest concentration tested [3]: significant response
CCCN(CCC)C(=O)C1(O)C(C)CC2C3CCC4=CC(=O)C=CC4(C)C3(F)C(O)CC21C (stereo not shown) [P]	–	transactivation potential (luminescence) compared to dexamethasone, repeat experiment (glucocorticoid receptor [4]): “right shifted response” and a reduced maximum compared to dexamethasone; repression of P65 stimulation of an NFkB response element compared with dexamethasone (glucocorticoid receptor [5]): no effect at 1 and 10 nM with only a negligible repression at 100 nM
CC1CC2C3CCC4=CC(=O)C=CC4(C)C3(F)C(O)CC2(C)C1(O)C(=O)COC(=O)Nc1ccccc1 (stereo not shown) [Compound N]	slightly increased reporter gene activation compared to that of dexamethasone	–
